In patent publication US20030119895A1, “Methods using a combination of a 3-heteroaryl-2-indolinone and a cyclooxygenase-2 inhibitor for the treatment of neoplasia” (Pharmacia Corporation, priority 1998, published 2003):
Values joined by “and” are separate entries in the source; they are usually repeats but may differ in a detail not shown here. Equal values may be shown once.

Assays:
[1] = test system: fibroblast growth factor-induced corneal angiogenesis; settings: rats; cited from earlier work
[2] = test system: 3T3/E/H+TGF-a(T) (NIH 3T3 cells expressing EGFR/HER2 chimera and TGF-a); experiment: SRB Assay 1: 3T3/E/H+TGF-a(T) Cell Growth SRB Assay; type: cell-based; settings: Mus musculus, NIH3T3, SRB Readout
Protocol: Sulforhodamine B (SRB) Growth Assays
The assays are carried out as follows:
0.4% SRB in 1% acetic acid
compound in DMSO (100 mM or less stock solution)
Cell Line and Growth Medium:
Trypsinize cells as usual. Transfer 100 μl of cell suspension to 10 ml of isotone. Count cells with the Coulter Counter.
Gently shake plates to allow for uniform attachment of the cells.
In 96 well-round bottom plate, add 125 μl of growth medium to columns 3-11.
At this dilution, the concentration of DMSO is 0.4% for a 2× solution or 0.2% for 1× solution on the cells.
Transfer the 2× starting compound solution to quadruplicate wells in column 12 of the 96-well round bottom plate. […] Transfer 100 μl of compound dilutions onto 100 μl medium on cells in corresponding wells of 96-well flat bottom plate. Total volume per well should be 200 μl.
For vehicle control, prepare a 2× solution of DMSO at 0.4% DMSO in growth medium. […]
Read plates on Dynatech ELISA Plate Reader at 570 nm with reference at 630 nm.

[3] = test system: HUV-EC-C cells (human umbilical vein endothelial cells); experiment: HUV-EC-C Assay, VEGF-stimulated [3H] thymidine incorporation; type: cell-based; settings: Homo sapiens, HUVEC, Mitogenesis in Endothelial Cells
[4] = test system: HUV-EC-C cells (human umbilical vein endothelial cells); experiment: HUV-EC-C Assay, a-FGF (ECGF)-stimulated [3H] thymidine incorporation; type: cell-based; settings: Homo sapiens, HUVEC, Mitogenesis in Endothelial Cells
Protocol: The following protocol may also be used to measure the composition's activity:
1. […] After cells have detached from the flask, add an equal volume of assay medium and transfer to a 50 ml sterile centrifuge tube (Fisher Scientific; catalogue no. 05-539-6).
2. Wash the cells with about 35 ml assay medium in the 50 ml sterile centrifuge, tube by adding the assay medium, centrifuge for 10 minutes at approximately 200× g, aspirate the supernatant, and resuspend with 35 ml D-PBS. Repeat the wash two more times with D-PBS, resuspend the cells in about 1 ml assay medium/15 cm^2 of tissue culture flask. Assay medium consists of F12K medium (Gibco BRL; catalogue no. 21127-014)+0.5% heat-inactivated fetal bovine serum. Count the cells with a Coulter Counter.RTM.v Coulter Electronics, Inc.) and add assay medium to the cells to obtain a concentration of 0.8-1.0×10^5 cells/ml.
3. Add cells to 96-well flat-bottom plates at 100 μl/well or 0.8-1.0×10^4 cells/well; incubate about 24 h at 37° C., 5% CO2.
1. Make up two-fold drug titrations in separate 96-well plates, generally 50 μM on down to 0 μM. Use the same assay medium as mentioned in day 0, step 2 above. Titrations are made by adding […] of drug at 200 μM (4× the final well concentration) to the top well of a particular plate column. Since the stock drug concentration is usually 20 mM in DMSO, the 200 μM drug concentration contains 2% DMSO. Therefore, diluent made up to 2% DMSO in assay medium (F12K+0.5% fetal bovine serum) is used as diluent for the drug titrations in order to dilute the drug but keep the DMSO concentration constant. Add this diluent to the remaining wells in the column at 60 μl/well. Take 60 μl from the 120 μl of 200 μM drug dilution in the top well of the column and mix with the 60 μl in the second well of the column. Take 60 μl from this well and mix with the 60 μl in the third well of the column, and so on until two-fold titrations are completed. When the next-to-the-last well is mixed, take 60 μl of the 120 μl in this well and discard it. Leave the last well with 60 μl of DMSO/media diluent as a non-drug-containing control. Make 9 columns of titrated drug, enough for triplicate wells each for 1) VEGF (obtained from Pepro Tech Inc., catalogue no. 100-200, 2) endothelial cell growth factor (ECGF) (also known as acidic fibroblast growth factor, or aFGF) (obtained from Boehringer Mannheim Biochemica, catalogue no. 1439 600), and assay media control. ECGF comes as a preparation with sodium heparin.
2. Transfer 50 μl/well of the drug dilutions to the 96-well assay plates containing the 0.8-1.0×10^4 cells/100 μl/well of the HUV-EC-C cells from day 0 and […] incubate ~2 h at 37° C., 5% CO2.
3. In triplicate, add 50 μl/well of 80 ng/ml VEGF, 20 ng/ml ECGF, or media control to each drug condition. As with the drugs, the growth factor concentrations are 4× the desired final concentration. Use the assay media from day 0 step 2 to make the concentrations of growth factors. Incubate approximately 24 hours at 37° C., 5% CO2. Each well will have 50 μl drug dilution, 50 μl growth factor or media, and 100 ul cells,=200 ul/well total. Thus the 4× concentrations of drugs and growth factors become 1× once everything has been added to the wells.
1. Add ^3H-thymidine (Amersham; catalogue no. TRK-686) at 1 μCi/well (10 μl/well of 100 μCi/ml solution made up in RPMI media+10% heat-inactivated fetal bovine serum) and incubate about 24 h at 37° C., 5% CO2.
Note: ^3H-thymidine is made up in RPMI media because all of the other applications for which we use the ^3H-thymidine involve experiments done in RPMI. The media difference at this step is probably not significant. RPMI was obtained from Gibco BRL, catalogue no. 11875-051.
1. Freeze plates overnight at −20° C.
1. Thaw plates and harvest with a 96-well plate harvester (Tomtec Harvester 96.RTM.) onto filter mats (Wallac; catalogue no. 1205-401); read counts on a Wallac Betaplate™ liquid scintillation counter.

EpH4-VEGF = experiment: Xenograft Assay 2: FLK-1/Xenograft Model, subcutaneous xenograft (In Vivo Data, EpH4-VEGF); design: species or system mice
Protocol: Assay 2: FLK-1/Xenograft Model
The ability of the compounds of the present invention to inhibit ovarian, melanoma, prostate, lung and mammary tumor cell lines established as SC xenografts was examined. These studies were conducted using doses ranging from 1 to 75 mg/kg/day.
Materials And Methods. The tumor cells were implanted subcutaneously into the indicated strains of mice. Treatment was initiated on day 1 post implantation unless otherwise indicated (e.g. treatment of the SCID mouse related to the A375 melanoma cell line began on Day 9). Eight (8) to sixteen (16) mice comprised each test group.
Animals. Female athymic mice (BALB/c, nu/nu), BALB/c mice, Wistar rats and Fisher 344 rats were obtained from Simonsen Laboratories (Gilroy, Calif.). Female A/I mice were obtained from Jackson Laboratory (Bar Harbor, Me.). DA rats were obtained from B&K Universal, Inc. (Fremont, Calif.). Athymic R/Nu rats, DBA/2N mice, and BALB/c mice were obtained from Harlan Sprague Dawley (Indianapolis, Ind.). Female C57BU6 mice were obtained from Taconic (Germantown, N.Y.). All animals were maintained under clean-room conditions in Micro-isolator cages with Alpha-dri bedding. They received sterile rodent chow and water ad libitum.
All procedures were conducted in accordance with the NIH Guide for the Care and Use Of Laboratory Animals.
Subcutaneous Xenograft Model. Cell lines were grown in appropriate medium as described. Cells were harvested at or near confluency with 0.05% Trypsin-EDTA and pelleted at 450×g for 10 min. Pellets were resuspended in sterile PBS or media (without FBS) to a suitable concentration indicated in the Figure legends and the cells were implanted into the hindflank of mice. Tumor growth-was measured over 3 to 6 weeks using venier calipers and tumor volumes were calculated as a product of length x width x height unless otherwise indicated. P values were calculated using the Students' t-test.
Different concentrations of a compound in 50-100 μl excipient (dimethylsulfoxide, PBTE, PBTE6C:D5W, or PBTE:D5W) were delivered by IP injection.
Results for various compounds obtained from the above-described in vivo assays are set forth at Table 5, below: […]

PDGFR = biological target: T1, PDGFR (Homo sapiens, UniProt P09619); experiment: PDGF-R ELISA (U1242 cells); type: cell-based; settings: ELISA Assay Results
T1 construct: other: ELISA Assay Results; U1242 cells
T1 sequence (P09619 33-1106): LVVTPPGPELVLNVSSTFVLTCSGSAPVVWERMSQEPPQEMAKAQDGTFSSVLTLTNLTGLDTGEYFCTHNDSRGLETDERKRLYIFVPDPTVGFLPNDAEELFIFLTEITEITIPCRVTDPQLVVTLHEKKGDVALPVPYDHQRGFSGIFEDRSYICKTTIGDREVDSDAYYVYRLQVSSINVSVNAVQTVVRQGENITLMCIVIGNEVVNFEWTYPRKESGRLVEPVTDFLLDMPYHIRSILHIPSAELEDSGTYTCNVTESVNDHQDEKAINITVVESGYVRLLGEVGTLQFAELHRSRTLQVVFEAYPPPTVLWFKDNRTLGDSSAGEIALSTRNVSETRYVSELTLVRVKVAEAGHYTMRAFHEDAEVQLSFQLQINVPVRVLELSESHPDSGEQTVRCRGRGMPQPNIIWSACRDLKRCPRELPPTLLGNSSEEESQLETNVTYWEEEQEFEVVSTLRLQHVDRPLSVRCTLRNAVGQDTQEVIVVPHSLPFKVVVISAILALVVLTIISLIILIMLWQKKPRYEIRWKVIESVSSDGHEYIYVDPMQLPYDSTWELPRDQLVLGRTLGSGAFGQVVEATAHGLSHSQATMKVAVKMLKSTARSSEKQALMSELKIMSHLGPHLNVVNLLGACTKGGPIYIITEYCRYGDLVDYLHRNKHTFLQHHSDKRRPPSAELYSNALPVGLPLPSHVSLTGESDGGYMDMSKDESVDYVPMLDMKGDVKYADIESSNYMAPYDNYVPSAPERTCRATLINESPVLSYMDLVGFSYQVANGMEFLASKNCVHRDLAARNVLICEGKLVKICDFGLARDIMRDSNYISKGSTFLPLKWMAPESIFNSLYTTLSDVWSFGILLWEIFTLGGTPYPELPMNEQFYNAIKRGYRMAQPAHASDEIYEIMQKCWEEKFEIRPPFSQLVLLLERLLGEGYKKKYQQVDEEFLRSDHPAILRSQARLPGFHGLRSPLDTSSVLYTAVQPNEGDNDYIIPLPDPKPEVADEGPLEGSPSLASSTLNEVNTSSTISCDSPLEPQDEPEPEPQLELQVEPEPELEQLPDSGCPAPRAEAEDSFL
Protocol: All cell culture media, glutamine, and fetal bovine serum were purchased from Gibco Life Technologies (Grand Island, N.Y.) unless otherwise specified. […] All cell lines were routinely subcultured twice a week and were negative for mycoplasma as determined by the Mycotect method (Gibco).
For ELISA assays, cells (U1242, obtained from Joseph Schlessinger, NYU) were grown to 80-90% confluency in growth medium (MEM with 10% FBS, NEAA, 1 mM NaPyr and 2 mM GLN) and seeded in 96-well tissue culture plates in 0.5% serum at 25,000 to 30,000 cells per well. […] Lysates were incubated with shaking for 1 hour at room temperature. The plates were washed with TBST four times and then incubated with polyclonal anti-phosphotyrosine antibody at room temperature for 30 minutes. Excess anti-phosphotyrosine antibody was removed by rinsing the plate with TBST four times. Goat anti-rabbit IgG antibody was added to the ELISA plate for 30 min at room temperature followed by rinsing with TBST four more times. […] Absorbance at 410 nm with a reference wavelength of 630 nm was recorded about 15 to 30 min after ABTS addition.

FLK-1 receptor = biological target: T2, FLK-1 receptor (Mus musculus, UniProt P35918); experiment: FLK-1 ELISA (kinase activity of the FLK-1 receptor in FLK-1/NIH3T3 cells); type: cell-based; settings: ELISA Assay Results, VEGF stimulation
T2 construct: expressed in transfected cells; host or cells: NIH3T3 C7#3 (FLK-1/NIH3T3)
T2 sequence (P35918 20-1345): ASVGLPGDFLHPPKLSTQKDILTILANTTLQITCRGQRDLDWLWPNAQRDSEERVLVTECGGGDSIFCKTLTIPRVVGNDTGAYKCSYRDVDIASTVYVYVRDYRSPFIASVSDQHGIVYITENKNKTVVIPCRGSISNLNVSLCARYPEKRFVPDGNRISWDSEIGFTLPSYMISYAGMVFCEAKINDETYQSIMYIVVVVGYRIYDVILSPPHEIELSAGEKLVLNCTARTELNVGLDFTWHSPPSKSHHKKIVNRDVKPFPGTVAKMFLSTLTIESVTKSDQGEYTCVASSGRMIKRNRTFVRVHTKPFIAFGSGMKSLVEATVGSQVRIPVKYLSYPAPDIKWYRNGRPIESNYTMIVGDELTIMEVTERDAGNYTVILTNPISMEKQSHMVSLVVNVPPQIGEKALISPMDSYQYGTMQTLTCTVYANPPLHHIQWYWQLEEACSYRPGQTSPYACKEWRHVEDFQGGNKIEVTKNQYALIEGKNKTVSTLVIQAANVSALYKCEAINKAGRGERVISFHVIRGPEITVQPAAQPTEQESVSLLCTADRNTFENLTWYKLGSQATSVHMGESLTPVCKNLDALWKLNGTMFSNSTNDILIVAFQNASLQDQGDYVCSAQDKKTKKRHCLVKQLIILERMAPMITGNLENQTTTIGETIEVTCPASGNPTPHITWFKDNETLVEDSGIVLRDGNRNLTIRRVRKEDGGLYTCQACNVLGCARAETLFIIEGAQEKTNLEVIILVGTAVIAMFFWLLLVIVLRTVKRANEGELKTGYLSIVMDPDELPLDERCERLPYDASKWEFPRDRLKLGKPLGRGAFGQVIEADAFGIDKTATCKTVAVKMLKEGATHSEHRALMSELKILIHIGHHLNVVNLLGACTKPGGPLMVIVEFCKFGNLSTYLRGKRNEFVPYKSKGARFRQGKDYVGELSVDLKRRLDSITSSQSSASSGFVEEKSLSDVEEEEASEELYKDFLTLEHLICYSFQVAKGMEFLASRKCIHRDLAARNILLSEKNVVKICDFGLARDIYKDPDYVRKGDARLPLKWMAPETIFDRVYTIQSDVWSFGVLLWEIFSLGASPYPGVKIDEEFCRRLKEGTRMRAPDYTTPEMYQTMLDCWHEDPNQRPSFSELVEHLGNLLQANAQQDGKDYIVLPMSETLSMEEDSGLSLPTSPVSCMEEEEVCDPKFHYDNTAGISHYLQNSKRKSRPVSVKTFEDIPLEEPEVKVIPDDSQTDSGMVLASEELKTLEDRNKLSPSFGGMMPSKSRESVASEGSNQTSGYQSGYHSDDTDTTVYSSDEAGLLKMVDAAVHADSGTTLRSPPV
Protocol: An ELISA assay was conducted to measure the kinase activity of the FLK-1 receptor and more specifically, the inhibition or activation of protein tyrosine kinase activity on the FLK-1 receptor. Specifically, the following assay was conducted to measure kinase activity of the FLK-1 receptor in FLK-1/NIH3T3 cells.
The following reagents and supplies were used:
PBS (Gibco Catalog No. 450-1300EB);
Ethanolamine stock (10% ethanolamine (pH 7.0), stored at 4° C.);
HNTG buffer (20 mM HEPES buffer (pH 7.5),150 mM NaCl, 0.2% Triton X-100, and 10% glycerol);
EDTA (0.5M (pH 7.0) as a 100× stock);
Sodium ortho vanadate (0.5M as a 100× stock);
Sodium pyro phosphate (0.2M as a 100× stock);
NIH3T3 C7#3 Cells (FLK-1 expressing cells);
VEGF, PeproTech, Inc. (catalog no. 100-20)(kept as 1 μg/100 til stock in Milli-Q dH2O and stored at −20° C. Affinity purified anti-FLK-1 antiserum, Enzymology Lab, Sugen, Inc.;
H2 02 (30% solution) (Fisher catalog no. H325);
Protocol. The following protocol was used for conducting the assay:
Coat Corning 96-well elisa plates with 1.0 μg per well Cappel Anti-rabbit IgG antibody in 0.1M Na2 CO3 pH 9.6. Bring final volume to 150 μl per well. Coat plates overnight at 4° C. Plates can be kept up to two weeks when stored at 4° C.
Grow cells in Growth media(DMEM, supplemental with 2.0 mM L-Glutamine, 10% FBS) in suitable culture dishes until confluent at 37° C., 5% CO2. […]

HER2 kinase = biological target: T3, HER2 kinase (Homo sapiens, UniProt P04626); experiment: HER-2 ELISA Assay 1: EGF Receptor-HER2 Chimeric Receptor Assay In Whole Cells; type: cell-based; settings: ELISA Assay Results
T3 construct: fused on or other part: The EGFR extracellular domain serves for EGF stimulation and for capture by mAb 05-101; The HER2 part carries the kinase domain; P00533 (Epidermal growth factor receptor)
T3 sequence (P04626 720-987 limits assumed): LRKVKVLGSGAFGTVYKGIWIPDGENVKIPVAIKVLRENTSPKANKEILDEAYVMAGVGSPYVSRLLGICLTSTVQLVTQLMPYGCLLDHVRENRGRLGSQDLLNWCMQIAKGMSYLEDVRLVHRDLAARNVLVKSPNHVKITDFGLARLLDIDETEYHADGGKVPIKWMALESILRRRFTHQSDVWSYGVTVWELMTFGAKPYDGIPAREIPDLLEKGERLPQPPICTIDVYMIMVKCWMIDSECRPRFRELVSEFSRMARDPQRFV
Protocol: Assay 1 EGF Receptor-HER2 Chimeric Receptor Assay In Whole Cells. HER2 kinase activity in hole EGFR-NIH3T3 cells was measured as described below:
Materials and Reagents. The following materials and reagents were used to conduct the assay:
Anti-phosphotyrosine antibody (anti-Ptyr) (polyclonal)(see, Fendley, et al., supra).
Detection antibody: Goat anti-rabbit IgG horse radish peroxidase conjugate, TAGO, Inc., Burlingame, Calif.
Procedure. The following protocol was used:
Coated plates are good for up to 10 days when stored at 4° C.
On day of use, remove coating buffer and replace with 100 μl blocking buffer (5% Carnation Instant Non-Fat Dry Milk in PBS). Incubate the plate, shaking, at room temperature (about 23° C. to 25° C.) for 30 minutes. Just prior to use, remove blocking buffer and wash plate 4 times with TBST buffer.
An NIH3T3 cell line overexpressing a chimeric receptor containing the EGFR extracellular domain and extracellular HER2 kinase domain can be used for this assay.
Choose dishes having 80-90% confluence for the experiment. Trypsinize cells and stop reaction by adding 10% fetal bovine serum. Suspend cells in DMEM medium (10% CS DMEM medium) and centrifuge once at 1500 rpm, at room temperature for 5 minutes.
Resuspend cells in seeding medium (DMEM, 0.5% bovine serum), and count the cells using trypan blue. Viability above 90% is acceptable. Seed cells in DMEM medium (0.5% bovine serum) at a density of 10,000 cells per well, 100 μL per well, in a 96 well microtiter plate. Incubate seeded cells in 5% CO2 at 37° C. for about 40 hours.
Check seeded cells for contamination using an inverted microscope. Dilute drug stock (10 mg/ml in DMSO) 1:10 in DMEM medium, then transfer 51 to a TBST well for a final drug dilution of 1:200 and a final DMSO concentration of 1%. Control wells receive DMSO alone. Incubate in 5% CO2 at 37° C. for two hours.
Prepare EGF ligand: dilute stock EGF in DMEM so that upon transfer of 10 μl dilute EGF (1:12 dilution), 100 nM final concentration is attained.
Prepare fresh HNTG* sufficient for 100 μl per well; and place on ice.
After 120 minutes incubation with drug, add prepared SGF ligand to cells, 10 μl per well, to a final concentration of 100 nM. Control wells receive DMEM alone. Incubate, shaking, at room temperature, for 5 minutes.
Remove drug, EGF, and DMEM. Wash cells twice with PBS. Transfer HNTG* to cells, 100 μl per well. Place on ice for 5 minutes. Meanwhile, remove blocking buffer from other ELISA plate and wash with TBST as described above.
With a pipette tip securely fitted to a micropipettor, scrape cells from plate and homogenize cell material by repeatedly aspirating and dispensing the HNTG* lysis buffer. Transfer lysate to a coated, blocked, and washed ELISA plate. Incubate shaking at room temperature for one hour.
Remove lysate and wash 4 times with TBST. Transfer freshly diluted anti-Ptyr antibody to ELISA plate at 100 μl per well. Incubate shaking at room temperature for 30 minutes in the presence of the anti-Ptyr antiserum (1:3000 dilution in TBST).
Remove the anti-Ptyr antibody and wash 4 times with TBST. Transfer the freshly diluted TAGO anti-rabbit IgG antibody to the ELISA plate at 100 μl per well., Incubate shaking at room temperature for 30 minutes (anti-rabbit IgG antibody: 1:3000 dilution in TBST).
Remove TAGO detection antibody and wash 4 times with TBST. Transfer freshly prepared ABTS/H2O2 solution to ELISA plate, 100 μl per well. Incubate shaking at room temperature for 20 minutes. (ABTS/H2O2 solution: 1.0 μl 30% H2O2 in 10 ml ABTS stock).
Stop reaction by adding 50 μl 5N H2 SO4 (optional), and determine O.D. at 410 nm.
The maximal phosphotyrosine signal is determined by subtracting the value of the negative controls from the positive controls. The percent inhibition of phosphotyrosine content for extract-containing wells is then calculated, after subtraction of the negative controls.

[5] = test system: 3T3/PDGF-βR/PDGF-BB(T) (NIH 3T3 cells expressing PDGFβ-receptor and PDGF-BB); experiment: SRB Assay 3: 3T3/PDGF-βR/PDGF-BB(T) Cell Growth SRB Assay; type: cell-based; settings: Mus musculus, NIH3T3, SRB Readout, read-out: 3T3/PDGFR + PDGF (T) IC50
Protocol: Assay 3: 3T3/PDGF-βR/PDGF-BB(T) Cell Growth SRB Assay
Cell line and growth medium:
3T3/PDGF-βR/PDGF-BB(T) (NIH 3T3 clone 7 cells expressing PDGFβ-receptor and PDGF-BB, from tumors resected from athymic mice) 2% calf serum/DMEM+2 mM glutamine
This part of assay is carried out in a laminar flow hood.
1. Trypsinize cells as usual. Transfer 200 μl of cell suspension to 10 ml of isotone. Count cells on the Coulter Counter.
2. Dilute cells in growth medium to 60,000 cells/ml. Transfer 100 μl of cells to each well in a 96-well flat bottom plate to give 6000 cells/well.
3. Allow half of plate (4 rows) for each compound and quadruplicate wells for each compound concentration, a set of 4 wells for medium control and 4 wells for DMSO control.
4. Gently shake plates to allow for uniform attachment of the cells to the plate.
5. Incubate the plates at 37° C. in a 10% CO2 incubator.
Day 1: Addition of Compound: same as for Assay 1.
Day 5: Development of Assay: same as for Assay 1.
3T3/E/H+TGF-α(T): NIH 3T3 cells expressing EGFR/HER2 chimera and TGF-α, tumor-derived 3T3/EGFR+TGF-α(T): NIH 3T3 cells expressing EGFR and TGF-α, tumor-derived 3T3/PDGFR+PDGF(T): NIH 3T3 cells expressing PDGF-βR and PDGF-ββ, tumor-derived SMC: human smooth muscle cells from Clonetics

Row | Compound | inhibition of fibroblast growth factor-induced corneal angiogenesis [1] | IC50 [2] | IC50 [3] | IC50 [4] | EpH4-VEGF % inhibition @ mg/kg (EpH4-VEGF; @ 50 mg/kg) | EpH4-VEGF % inhibition @ mg/kg (EpH4-VEGF; @ 75 mg/kg) | IC50 (PDGFR) | IC50 (FLK-1 receptor) | IC50 (HER2 kinase) | IC50 [5]
1 | Cc1ccc(-c2cc(C(F)(F)F)nn2-c2ccc(S(N)(=O)=O)cc2)cc1 [Celecoxib, celecoxib] | potent inhibition | – | – | – | – | – | – | – | – | –
2 | CN(C)c1ccc(C=C2C(=O)Nc3ccccc32)cc1 [SU4312, 3-(4-Dimethylaminobenzylidenyl)-2-indolinone] | – | 36 µM | 1.1 µM | 154 µM | 63% @ 50 | 56% @ 75 and 50% @ 75 | – | – | – | –
3 | COc1ccc(OC)c(C=C2C(=O)Nc3ccccc32)c1 [SU4793, 3-(2,5-Dimethoxybenzylidenyl)-2-indolinone] | – | – | 6.6 µM | 3.4 µM | – | – | 87.4 µM | – | – | –
4 | O=CN1CCN(c2ccc(C=C3C(=O)Nc4ccccc43)cc2)CC1 [SU4984, 3-[4-(4-Formylpiperazin-1-yl)benzylidenyl]-2-indolinone] | – | – | 0.8 µM | 25.8 µM | – | – | – | 1.6 µM | 90.2 µM | 22.2 µM
